Test results from patent publication US20220313639A1, “MITOCHONDRIAL FUNCTION ACTIVATOR” (Yuki Gosei Kogyo Co., Ltd., priority 2019, published 2022).
Read-outs that look alike come from different tables or passages of the source.

What was measured:
[1] = test system: C2C12 cells differentiated into myotube cells
Protocol: (§1) The number of activated mitochondria in C2C12 cells was measured as follows. C2C12 cells were seeded in 6-well plates at 4.0×10^5 cells/well, and after 24 hours, β-alanine was added thereto at a concentration of 500 μM or 1 mM. In addition, 1×PBS was added to as a control well. After 2 hours from the above addition, the medium was removed by suction, and 2 mL/well of Mito Tracker Red CMXRos (Invitrogen) (Invitrogen) which is diluted to 250 nM in DMEM medium containing 10% FBS, was added. Then, the whole was incubated for 30 minutes at 37° C. in the presence of 5% CO2 under shading. Then, the diluted solution was removed by suction, and 1×PBS was added at 1 mL/well to wash the cells. 1×PBS was removed by suction and trypsin was added at 500 μL/well. Then, trypsin was removed by suction and incubated at 37° C. in the presence of 5% CO2 for 5 minutes under shading. After incubation, the cells were suspended to 1 mL of DMEM medium containing 10% FBS to be collected in a 1.5 mL tube.
(§2) After passing this cell suspension through a nylon mesh (Kyoshin Riko), the cells were measured by a flow cytometer (EPICS XL System II-JK, Beckman Coulter, CA, USA; Cell Analyzer EC800 CSC, Sony). The analysis was performed at the FCM analysis software FlowJo (TOMY Digital Biology, Tokyo, Japan).
(§3) In addition, cells were seeded, and β-alanine was added thereto at a concentration of 100 μM or 1 mM. […]

[2] = test system: undifferentiated mouse skeletal muscle-derived myoblast line, C2C12 cells; conditions: vs 1×PBS control
Protocol: (§4) C2C12 cells were subcultured at 37° C. in the presence of 5% CO2, using Dulbecco's Modified Eagle Medium (DMEM) (Nissui, Tokyo, Japan) containing 10% inactivated FBS, penicillin (100,000 U/L; Meiji, Tokyo, Japan), streptomycin (100 mg/L: Meiji), NaHCO3 (2.0 g/L: Wako, Osaka, Japan), and L-glutamine (Wako).
The number of mitochondria in C2C12 cells was measured as follows.
as §1, with “C2C12” for “The number of activated mitochondria in C2C12 cells was measured as follows. C2C12”, “Green FM” for “Red CMXRos (Invitrogen)”, “200” for “250”, “tube. After passing this cell suspension through a nylon mesh (Kyoshin Riko, Tokyo, Japan), the cells were measured by a flow cytometer (EPICS XL System II-JK, Beckman Coulter, CA, USA; Cell Analyzer EC800 CSC, Sony, Tokyo, Japan). The analysis was performed at the FCM analysis software FlowJo (TOMY Digital Biology, Tokyo, Japan).” for “tube.”
In addition, cells were seeded, and β-alanine was added thereto at a concentration of 100 μM or 1 mM. After 24 hours, β-alanine was secondary added, and the medium was aspirated after 24 hours of the second addition. Using the above cells treated with β-alanine for 48 hours as cells to which the diluted solution of Mito Tracker Green FM (Invitrogen) was added, the same procedure as the cells treated with β-alanine for 2 hours was repeated.
Mito Tracker Green FM (Invitrogen) is a fluorescent reagent that stains mitochondria independently of the membrane potential.
(§5) The procedure described in Example 1 was repeated, except that glycine was used instead of β-alanine.

[3] = test system: C2C12 cells differentiated into myotube cells; remark: listed apart in the source
Protocol: as §1, with “C2C12” for “The number of activated mitochondria in C2C12 cells was measured as follows. C2C12”, “Green FM” for “Red CMXRos (Invitrogen)”, “200” for “250”, “tube. After passing this cell suspension through a nylon mesh (Kyoshin Riko, Tokyo, Japan), the cells were measured by a flow cytometer (EPICS XL System II-JK, Beckman Coulter, CA, USA; Cell Analyzer EC800 CSC, Sony, Tokyo, Japan). The analysis was performed at the FCM analysis software FlowJo (TOMY Digital Biology, Tokyo, Japan).” for “tube.”
as §3

[4] = test system: undifferentiated mouse skeletal muscle-derived myoblast line, C2C12 cells; conditions: for mitochondrial activation (Mito Tracker Red CMXRos): vs 1×PBS control
Protocol: as §4, §1, §2
In addition, cells were seeded, and β-alanine was added thereto at a concentration of 100 μM or 1 mM. After 24 hours, β-alanine was secondary added, and the medium was aspirated after 24 hours of the second addition. Using the above cells treated with β-alanine for 48 hours as cells to which the diluted solution of Mito Tracker Red CMXRos (Invitrogen) was added, the same procedure as the cells treated with β-alanine for 2 hours was repeated.
On the other hand, Mito Tracker Red CMXRos (Invitrogen) is a fluorescent reagent that stains mitochondria in a membrane potential-dependent manner. Therefore,
when a peak of the flow cytometer histogram shifts to the right by the addition of β-alanine, it indicates mitochondrial activity was enhanced.
as §5
The cells were prepared by repeating the procedure of Mito Tracker Red CMX Ros in Example 1 except that the treatment with β-alanine was set to 72 hours.

[5] = test system: Pgc-1α gene; conditions: differentiated C2C12 cells, 48 hours, relative to β-actin, ΔΔCt method
[6] = test system: undifferentiated mouse skeletal muscle-derived myoblast line, C2C12 cells; conditions: 48 hours
Protocol: In this example, mitochondrial activation was examined by using a confocal laser scanning microscope.
The cells treated with β-alanine for 48 hours were prepared by the same procedure as in Example 1. C2C12 cells were seeded at a concentration of 3.0×10^4 cells/mL or 5.0×10^4 cell s/mL, and Mito Tracker Green FM (Invitrogen) and Mito Tracker Red CMXRos (Invitrogen) were added simultaneously. The resulting cells were observed under a confocal laser scanning microscope (Olympus).

[7] = test system: Acaa2 gene; conditions: differentiated C2C12 cells; 500 μM
Protocol: (§6) In this example, the transcription of the genes for Acaa1b and Acaa2 in β-alanine-treated mouse skeletal muscle-derived myoblast line, C2C12 cells was measured.
(§7) The procedure described in Example 4 was repeated except that the Acaa1b forward primer and the Acaa1b reverse primer, or the Acaa2 forward primer and the Acaa2 reverse primer were used instead of the Pgc-1α forward primer and the Pgc-1α reverse primer.

[8] = test system: Acaa1b gene; conditions: differentiated C2C12 cells; 500 μM
Protocol: as §6, §7

[9] = treatment time 2 hours, 500 μM or 1 mM
[10] = treatment time 48 hours, 100 μM or 1 mM

Row | SMILES | mitochondrial activation (Mito Tracker Red CMXRos) ([1]; treatment time 2 hours) | mitochondrial activation (Mito Tracker Red CMXRos) ([1]; treatment time 48 hours) | number of mitochondria (Mito Tracker Green FM) [2, 9] | number of mitochondria (Mito Tracker Green FM) [2, 10] | number of mitochondria (Mito Tracker Green FM) ([3]; treatment time 2 hours) | number of mitochondria (Mito Tracker Green FM) ([3]; treatment time 48 hours) | mitochondrial activation (Mito Tracker Red CMXRos) [4, 9] | mitochondrial activation (Mito Tracker Red CMXRos) [4, 10] | expression of Pgc-1α ([5]; 500 μM) | red fluorescence of Mito Tracker Red CMX Ros (confocal microscope) ([6]; 500 μM) | red fluorescence of Mito Tracker Red CMX Ros (confocal microscope) ([6]; 1 mM) | fluorescence of Mito Tracker Red (flow cytometry) ([4]; treatment 72 hours) | expression of Acaa2 [7] | expression of Acaa1b [8] | expression of Pgc-1α ([5]; 1 mM)
1 | NCC(=O)O [glycine] | mitochondrial activation was confirmed | mitochondrial activation was confirmed | increased in a concentration-dependent manner | increased in a concentration-dependent manner | increased in a concentration-dependent manner | increased in a concentration-dependent manner | mitochondrial activation was confirmed | mitochondrial activation was confirmed | enhanced the expression | – | – | – | – | – | –
2 | NCCC(=O)O [β-alanine, 3-aminopropanoic acid] | – | – | increased in a concentration-dependent manner | increased in a concentration-dependent manner | – | – | mitochondrial activation was confirmed | mitochondrial activation was confirmed | enhanced the expression | strengthened the red fluorescence | further strengthened the red fluorescence | increased the fluorescence | enhanced the expression | enhanced the expression | enhanced the expression
